US10058577B2, “Thermo-stable strains, products and methods thereof” (TRIPHASE PHARMACEUTICALS PVT. LTD., priority 2014, dated 2018)

Legend:
[1] = system: Lactobacillus acidophilus TSP-La1; assay: Antibiotic susceptibility by disk diffusion method; type: cell-based; conditions: for zone of inhibition at 5 µg/disc: TSPLA1, 5 μg; for zone of inhibition at 30 µg/disc: TSPLA1, 30 μg; for zone of inhibition at 10 µg/disc: TSPLA1, 10 μg
Procedure: (§1) In order to ascertain the sensitivity of the thermostable strains in the food products towards antibiotics, Antibiotic susceptibility profile for Lactobacillus acidophilus is created by disk diffusion method. The susceptibility criteria used is established by Charteris et al. The Lactobacillus acidophilus is grown in Man Rogosa Sharpe Agar (MRSA).
67.15 grams is suspended in 1000 ml distilled water and heated to boiling to dissolve the medium completely. It is sterilized by autoclaving at 15 lbs pressure (121° C.) for 20 minutes, mixed well and poured into sterile Petri plates.
The concentration of the tested antibiotics has been included depending upon their minimum inhibitory concentrations.

[2] = system: Lactobacillus plantarum TSP-Lp1; assay: Antibiotic susceptibility by disk diffusion method; type: cell-based; conditions: for zone of inhibition at 5 µg/disc: TSPLP1, 5 μg; for zone of inhibition at 30 µg/disc: TSPLP1, 30 μg; for zone of inhibition at 10 µg/disc: TSPLP1, 10 μg
Procedure: as §1
The same set of study as the previous example is conducted using Lactobacillus plantarum strain of the present disclosure and the results for the study are depicted in Table No. 13 as below. The susceptibility criteria used is established by Charteris et al. The Lactobacillus acidophilus is grown in Man Rogosa Sharpe Agar, […]

[3] = Lactobacillus acidophilus, read-out: MIC Results
[4] = Lactiplantibacillus plantarum, read-out: MIC Results

CC[C@H]1OC(=O)[C@H](C)[C@@H](O[C@H]2C[C@@](C)(OC)[C@@H](O)[C@H](C)O2)[C@H](C)[C@@H](O[C@@H]2O[C@H](C)C[C@H](N(C)C)[C@H]2O)[C@](C)(O)C[C@@H](C)C(=O)[C@H](C)[C@@H](O)[C@]1(C)O [Erythromycin]
Resistant/Sensitive ([1]; 15 μg): Resistant | zone of inhibition at 15 µg/disc ([1]; Lactobacillus acidophilus, TSPLA1, 15 μg, read-out: MIC Results): 14 mm | Resistant/Sensitive ([2]; 15 μg): Sensitive | zone of inhibition at 15 µg/disc ([2]; Lactiplantibacillus plantarum, TSPLP1, 15 μg, read-out: MIC Results): 14 mm

COc1cccc(OC)c1C(=O)N[C@@H]1C(=O)N2[C@@H]1SC(C)(C)[C@@H]2C(=O)O [Methicillin]
Resistant/Sensitive ([1]; 5 μg): Sensitive | zone of inhibition at 5 µg/disc [1, 3]: 30 mm | Resistant/Sensitive ([2]; 5 μg): Sensitive | zone of inhibition at 5 µg/disc [2, 4]: 15 mm

Cc1onc(-c2ccccc2)c1C(=O)N[C@@H]1C(=O)N2[C@@H]1SC(C)(C)[C@@H]2C(=O)O [Oxacillin]
MIC Results ([1]; 1 μg): No Zone | Resistant/Sensitive ([1]; 1 μg): Resistant | MIC Results ([2]; 1 μg): No Zone | Resistant/Sensitive ([2]; 1 μg): Resistant

CC1(C)S[C@@H]2[C@H](NC(=O)[C@H](N)c3ccc(O)cc3)C(=O)N2[C@H]1C(=O)O [Amoxicillin]
Resistant/Sensitive ([1]; 30 μg): Sensitive | zone of inhibition at 30 µg/disc [1, 3]: 32 mm | Resistant/Sensitive ([2]; 30 μg): Sensitive | zone of inhibition at 30 µg/disc [2, 4]: 39 mm

CCC[C@@H]1C[C@@H](C(=O)N[C@@H]([C@H]2O[C@H](SC)[C@H](O)[C@@H](O)[C@H]2O)[C@H](C)Cl)N(C)C1 [Clindamycin]
zone of inhibition at 2 µg/disc ([1]; Lactobacillus acidophilus, TSPLA1, 2 μg, read-out: MIC Results): 31 mm | zone of inhibition at 2 µg/disc ([2]; Lactiplantibacillus plantarum, TSPLP1, 2 μg, read-out: MIC Results): 34 mm

O=C(O)c1cn(C2CC2)c2cc(N3CCNCC3)c(F)cc2c1=O [Ciprofloxacin]
Resistant/Sensitive ([2]; 10 μg): Sensitive | zone of inhibition at 10 µg/disc [2, 4]: 31 mm

O=C(N[C@H](CO)[C@H](O)c1ccc([N+](=O)[O-])cc1)C(Cl)Cl [Chloramphenicol]
Resistant/Sensitive ([1]; 30 μg): Sensitive | zone of inhibition at 30 µg/disc [1, 3]: 29 mm | Resistant/Sensitive ([2]; 30 μg): Sensitive | zone of inhibition at 30 µg/disc [2, 4]: 31 mm

[H]/N=C(/N)N[C@H]1[C@H](O)[C@@H](O)[C@H](O[C@@H]2O[C@@H](C)[C@](O)(C=O)[C@H]2O[C@@H]2O[C@@H](CO)[C@H](O)[C@@H](O)[C@@H]2NC)[C@@H](N/C(N)=N\[H])[C@@H]1O [Streptomycin]
Resistant/Sensitive ([1]; 10 μg): Sensitive | zone of inhibition at 10 µg/disc [1, 3]: 18 mm | Resistant/Sensitive ([2]; 10 μg): Sensitive | zone of inhibition at 10 µg/disc [2, 4]: 20 mm

CC(=O)OCC1=C(C(=O)O)N2C(=O)[C@@H](NC(=O)Cc3cccs3)[C@H]2SC1 [Cephalothin]
Resistant/Sensitive ([1]; 30 μg): Sensitive | zone of inhibition at 30 µg/disc [1, 3]: 25 mm | Resistant/Sensitive ([2]; 30 μg): Sensitive | zone of inhibition at 30 µg/disc [2, 4]: 23 mm

CN[C@H](CC(C)C)C(=O)N[C@H]1C(=O)N[C@@H](CC(N)=O)C(=O)N[C@H]2C(=O)N[C@H]3C(=O)N[C@H](C(=O)N[C@H](C(=O)O)c4cc(O)cc(O)c4-c4cc3ccc4O)[C@H](O)c3ccc(c(Cl)c3)Oc3cc2cc(c3O[C@@H]2O[C@H](CO)[C@@H](O)[C@H](O)[C@H]2O[C@H]2C[C@](C)(N)[C@H](O)[C@H](C)O2)Oc2ccc(cc2Cl)[C@H]1O [Vancomycin]
MIC Results ([1]; 30 μg): No Zone | Resistant/Sensitive ([1]; 30 μg): Resistant | MIC Results ([2]; 30 μg): No Zone | Resistant/Sensitive ([2]; 30 μg): Resistant

CN(C)[C@@H]1C(O)=C(C(N)=O)C(=O)[C@@]2(O)C(O)=C3C(=O)c4c(O)cccc4[C@@](C)(O)[C@H]3C[C@@H]12 [Tetracycline]
zone of inhibition at 30 µg/disc [1, 3]: 11 mm | zone of inhibition at 30 µg/disc [2, 4]: 14 mm

CO[C@H]1/C=C/O[C@@]2(C)Oc3c(C)c(O)c4c(O)c(c(/C=N/N5CCN(C)CC5)c(O)c4c3C2=O)NC(=O)/C(C)=C\C=C\[C@H](C)[C@H](O)[C@@H](C)[C@@H](O)[C@@H](C)[C@H](OC(C)=O)[C@@H]1C [Rifampicin]
zone of inhibition at 5 µg/disc [1, 3]: 35 mm | zone of inhibition at 5 µg/disc [2, 4]: 43 mm

CC1(C)S[C@@H]2[C@H](NC(=O)[C@H](N)c3ccccc3)C(=O)N2[C@H]1C(=O)O [Ampicillin]
Resistant/Sensitive ([1]; 10 μg): Resistant | zone of inhibition at 10 µg/disc [1, 3]: 10 mm | MIC Results ([2]; 10 μg): No Zone | Resistant/Sensitive ([2]; 10 μg): Resistant

Gentamycin
MIC Results ([1]; 10 μg): 10 mm | Resistant/Sensitive ([1]; 10 μg): Resistant | MIC Results ([2]; 10 μg): 8 mm | Resistant/Sensitive ([2]; 10 μg): Resistant
